Results: patent US9309537B2, “Chimeric rat produced using rat embryonic stem cells in the presence of an ES cell differentiation suppressant” (National Cancer Center, priority 2009, dated 2016)

System: rat ES cells
Assay: Culture of established rat ES cells with PAC factor or Y factor alone (colony morphology, alkaline phosphatase)
Assay type: cell-based
Conditions: ES cell culture medium on MEF

`C[C@@H](N)[C@H]1CC[C@H](C(=O)Nc2ccncc2)CC1` [Y, Y-27632] was tested, and the alkaline phosphatase activity was “did not exhibit alkaline phosphatase activity” and the “undifferentiated state and colony morphology of established rat ES cells” value was “unable to maintain the undifferentiation state”.
